The values that follow come from patent publication US10220072B2, “Mesalamine for the treatment of cancer” (Cipla Limited, priority 2016, dated 2019).

Read-outs that look alike come from different tables or passages of the source.

In general, IC50 refers to the concentration that gives 50% inhibition.

The test system of test [1] is 10 human tumor xenograft-derived cell suspensions or tumor cell lines of renal cancer. The test is described as follows: Clonogenic assay: ex vivo colony formation (anchorage independent growth) in semi-solid medium. To be noted: for IC50: Homo sapiens, mean across 10 renal cancer tumor models, test concentrations 0.0698 mM to 3 mM. It is filed as cell-based. On the procedure: In the present study, mesalamine was characterized for their ability to inhibit anchorage independent growth and ex vivo colony formation of tumor cells in semi-solid medium. Mesalamine was tested against 10 human tumor xenograft-derived cell suspensions or tumor cell lines of renal cancer. Test concentrations ranged from 0.0698 mM to 3 mM.
Cell lines were routinely passaged one or twice weekly. All cells were grown at 37° C. in a humidified atmosphere with 5% CO2 in RPMI 1640 medium (Biochrom) supplemented with 10% (v/v) fetal calf serum and 0.1 mg/mL gentamicin. The percentage of viable cells was determined in a Neubauer-hemocytometer using trypan blue exclusion.
Tumor xenografts (patient-derived, as well as cell line-derived xenografts) were passaged as subcutaneous xenografts in NMRI nu/nu mice. At a tumor volume of 400-1000 mm^3 tumor-bearing mice were sacrificed and tumors were collected under sterile conditions without delay according to the relevant Oncotest SOPs and the relevant animal welfare guidelines published by the FELASA and the GV-SOLAS. Tumors were mechanically disaggregated and subsequently incubated with an enzyme cocktail consisting of collagenase type IV (41 U/mL), DNase I (125 U/mL), hyaluronidase type III (100 U/mL), and dispase II (1.0 U/mL) in RPMI 1640 medium (Life Technologies) at 37° C. for 60-120 minutes. Cells were passed through sieves of 100 μm and 40 μm mesh size (Cell Strainer, BD Falcon™), and washed with RPMI 1640 medium. The percentage of viable cells was determined in a Neubauer-hemocytometer using trypan blue exclusion. Aliquots of the cells were frozen down, and stored in liquid nitrogen. On each day of an experiment, a frozen aliquot of tumor cells was thawed and used for preparation of assay plates.
The clonogenic assay was carried out in a 96 well plate format using ultra low attachment plates. […] Cultures were incubated at 37° C. and 7.5% CO2 in a humidified atmosphere for 8 to 13 days and monitored closely for colony growth using an inverted microscope. […]

Test [2] relates to Human renal cell carcinoma cell line (A498). The test is described as follows: In vivo anti-tumor efficacy in xenograft model. Set-up: species or system female athymic nude mice. How it is done:
Healthy 10 female athymic nude mice were recruited for the donor cell inoculation. Animals were subcutaneously injected at flank region with 10 million A498 cells suspended in 200 μl of media and matrigel. Animals were monitored for solid tumor growth. […] Tumors were fragmented in to ˜30 mg size. […] Tumor bearing animals were selected from the experimental animals and grouped on basis of tumor size, into six groups containing 7 animals in each group. […] Group 3 received mesalamine at 250 mg/kg. [table] The tumor sizes were measured weekly twice from the date of tumor appearance till the end of the experiment. Tumor size was measured by digital vernier caliper (MITUTOYO) by measuring length (L=longest axis) and width (W=shortest axis). […] From the tumor volume data mean tumor volume and % tumor growth inhibition (% TGI) were determined.

Where [3] appears, read: G3, 250 mg/kg p.o. q.d.x21, Day 1.
Setting [4] is: G3, 250 mg/kg p.o. q.d.x21, Day 6.
[5] abbreviates: G3, 250 mg/kg p.o. q.d.x21, Day 9.
[6] abbreviates: G3, 250 mg/kg p.o. q.d.x21, Day 13.
The mark [7] stands for this setting: G3, 250 mg/kg p.o. q.d.x21, Day 16.
Where [8] appears, read: G3, 250 mg/kg p.o. q.d.x21, Day 20.
[9] abbreviates: G2, 20 mg/kg p.o. q.d.x21 (sub-therapeutic dose), Day 1.
[10] abbreviates: G2, 20 mg/kg p.o. q.d.x21 (sub-therapeutic dose), Day 6.
Setting [11] is: G2, 20 mg/kg p.o. q.d.x21 (sub-therapeutic dose), Day 9.
Setting [12] is: G2, 20 mg/kg p.o. q.d.x21 (sub-therapeutic dose), Day 13.
[13] abbreviates: G2, 20 mg/kg p.o. q.d.x21 (sub-therapeutic dose), Day 16.
[14] abbreviates: G2, 20 mg/kg p.o. q.d.x21 (sub-therapeutic dose), Day 20.

Turning to `Nc1ccc(O)c(C(=O)O)c1` [Mesalamine, 5-amino-2-hydroxybenzoic acid], the IC50 is 1210 µM in test [1] (continuous exposure 8 to 13 days, read-out: mean relative IC50 value, inhibition of colony formation) and 1260 µM in test [1] (read-out: second mean IC50 value printed in brackets after the mean relative IC50). Besides, the “Bottom plateaus of the concentration-effect curves of responding tumor models” value in test [1] (responding tumor models) is 0 to 18%. Moreover, the “Mean Tumor Growth Inhibition (% TGI)” value amounted to 1.56% in test [2] (setting [3]); 51.29% in test [2] (setting [4]); 46.01% in test [2] (setting [5]); 51.09% in test [2] (setting [6]); 47.87% in test [2] (setting [7]); 58.08% in test [2] (setting [8]). In addition, the “Mean Tumor Volume” value in test [2] (setting [3]) was 145.26 mm^3; in test [2] (setting [4]), 161.68 mm^3; in test [2] (setting [5]), 250.41 mm^3; in test [2] (setting [6]) it was 301.82 mm^3; in test [2] (setting [7]) it was 501.10 mm^3; in test [2] (setting [8]) it was 536.78 mm^3. Besides, the “inhibiting tumor formation (anti-tumor efficacy by itself)” value in test [2] (at the dose tested (250 mg/kg p.o. q.d.x21)) was “more than 50%”. For the same compound, the “anti-tumor efficacy compared with standard” value in test [2] (mesalamine 250 mg/kg vs sunitinib 20 mg/kg, p.o. q.d.x21) is on record as “comparable to sunitinib”.

For the compound `CCN(CC)CCNC(=O)c1c(C)[nH]c(/C=C2\C(=O)Nc3ccc(F)cc32)c1C` [Sunitinib], the “Mean Tumor Growth Inhibition (% TGI)” value in test [2] (setting [9]) worked out at 1.47%; in test [2] (setting [10]), 47.31%; in test [2] (setting [11]), 43.52%; in test [2] (setting [12]), 44.80%; in test [2] (setting [13]) it was 53.39%; in test [2] (setting [14]) it was 50.78%. Also, the “Mean Tumor Volume” value is given as 145.40 mm^3 in test [2] (setting [9]); 174.90 mm^3 in test [2] (setting [10]); 261.95 mm^3 in test [2] (setting [11]); 340.62 mm^3 in test [2] (setting [12]); 448.05 mm^3 in test [2] (setting [13]); 630.25 mm^3 in test [2] (setting [14]).
